EP0013067A1, “Bicyclic beta-lactam antibacterial agents, their use in pharmaceutical compositions, processes for their preparation and intermediates for use in such processes” (BEECHAM GROUP PLC, priority 1978, dated 1980)
Like-named read-outs stand apart in the source and are kept apart here.

Columns and labels:
Type in all cases: cell-based
[1] = antibacterial activity (general statement, no method given); conditions: prepared and tested by the applicant; no method or organisms given
Bacillus subtilis A = assay: MIC, DST agar + 10% horse blood; conditions: read-out: MIC Agar
Source text: (§1) The ninimum inhibitory concentrations (MIC) cf this compound required to inhibit the growth of various bacteria are tabulated balow: […]

Citrobacter freundii E8 = assay: MIC, DST agar + 10% horse blood
Source text: as §1

E. coli ESS = assay: MIC, DST agar + 10% horse blood; conditions: Escherichia coli, inoculum 0.001 ml of an undilute overnight broth culture
Source text: as §1

Escherichia coli 0111 [2] = assay: MIC, DST agar + 10% horse blood; conditions: Escherichia coli 0111, inoculum 0.001 ml of an undilute overnight broth culture
Source text: as §1

Escherichia coli JT 39 [3] = assay: MIC, DST agar + 10% horse blood
Source text: as §1

Klebsiella aerogenes A [4] = assay: MIC, DST agar + 10% horse blood; conditions: read-out: MIC Agar
Source text: as §1

Proteus mirabilis C977 [5] = assay: MIC, DST agar + 10% horse blood
Source text: as §1

Proteus morganii I580 = assay: MIC, DST agar + 10% horse blood; conditions: Morganella morganii
Source text: as §1

Proteus rettgeri WM16 = assay: MIC, DST agar + 10% horse blood; conditions: Providencia rettgeri
Source text: as §1

Proteus vulgaris W091 = assay: MIC, DST agar + 10% horse blood
Source text: as §1

Pseudomonas aeruginosa A [6] = assay: MIC, DST agar + 10% horse blood; conditions: read-out: MIC Agar
Source text: as §1

[7] = tested on: Salmonella typhimurium CT10; assay: MIC, DST agar + 10% horse blood; conditions: Salmonella enterica, read-out: MIC Agar
Source text: as §1

Serratia marcescens US20 = assay: MIC, DST agar + 10% horse blood
Source text: as §1

[8] = tested on: Staphylococcus aureus 1517; assay: MIC, DST agar + 10% horse blood
Source text: as §1

[9] = tested on: Staphylococcus aureus Oxford; assay: MIC, DST agar + 10% horse blood; conditions: read-out: MIC Agar
Source text: as §1

[10] = tested on: Staphylococcus aureus Russell; assay: MIC, DST agar + 10% horse blood; conditions: read-out: MIC Agar
Source text: as §1

Streptococcus faecalis I = assay: MIC, DST agar + 10% horse blood; conditions: Enterococcus faecalis, read-out: MIC Agar
Source text: as §1

[11] = tested on: Streptococcus pneumoniae CN33; assay: MIC, DST agar + 10% horse blood
Source text: as §1

[12] = tested on: Streptococcus pyogenes CN10; assay: MIC, DST agar + 10% horse blood
Source text: as §1

Escherichia coli 0111 [13] = assay: MIC, microtitre using Nutrient broth; conditions: Microtitre using Nutrient broth, inoculum 0.001 ml of an undilute overnight broth culture
Source text: as §1

Escherichia coli JT 39 [14] = assay: MIC, microtitre using Nutrient broth
Source text: as §1

Klebsiella aerogenes A [15] = assay: MIC, microtitre using Nutrient broth; conditions: read-out: MIC Broth
Source text: as §1

Proteus mirabilis C977 [16] = assay: MIC, microtitre using Nutrient broth
Source text: as §1

Pseudomonas aeruginosa A [17] = assay: MIC, microtitre using Nutrient broth; conditions: read-out: MIC Broth
Source text: as §1

[18] = tested on: Staphylococcus aureus Oxford; assay: MIC, microtitre using Nutrient broth; conditions: read-out: MIC Broth
Source text: as §1

[19] = tested on: Staphylococcus aureus Russell; assay: MIC, microtitre using Nutrient broth; conditions: read-out: MIC Broth
Source text: as §1

Enterobacter cloacae N1 = assay: MIC, DST agar + 10% horse blood; conditions: Enterobacter cloacae, N1, read-out: MIC Agar
Source text: as §1

Shigella sonnei MB 11967 = assay: MIC, DST agar + 10% horse blood; conditions: MB11967, inoculum 0.001 ml of an undilute overnight broth culture
Source text: as §1

[20] = Bacillus subtilis A, DST agar + 10% horse blood, inoculum 0.001 ml of an undilute overnight broth culture
[21] = Staphylococcus aureus Oxford, DST agar + 10% horse blood, inoculum 0.001 ml of an undilute overnight broth culture
[22] = Staphylococcus aureus Russell, DST agar + 10% horse blood, inoculum 0.001 ml of an undilute overnight broth culture
[23] = Streptococcus pyogenes CN10, DST agar + 10% horse blood, inoculum 0.001 ml of an undilute overnight broth culture, read-out: MIC Agar
[24] = Staphylococcus aureus Oxford, Microtitre using Nutrient broth, inoculum 0.001 ml of an undilute overnight broth culture
[25] = Staphylococcus aureus Russell, Microtitre using Nutrient broth, inoculum 0.001 ml of an undilute overnight broth culture
[26] = Citrobacter freundii, E8, read-out: MIC Agar
[27] = Escherichia coli, JT39, read-out: MIC Agar
[28] = Proteus mirabilis, C977, read-out: MIC Agar
[29] = Proteus vulgaris, W091, read-out: MIC Agar
[30] = Serratia marcescens, US20, read-out: MIC Agar
[31] = Staphylococcus aureus, 1517, read-out: MIC Agar
[32] = Streptococcus pneumoniae, CN33, read-out: MIC Agar
[33] = Streptococcus pyogenes, CN10, read-out: MIC Agar
[34] = Escherichia coli, JT39, read-out: MIC Broth
[35] = Proteus mirabilis, C977, read-out: MIC Broth

Row | Structure (SMILES) | MIC (Bacillus subtilis A; [20]) [µg/mL] | MIC (E. coli ESS) [µg/mL] | MIC (Escherichia coli 0111 [2]) [µg/mL] | MIC [9, 21] [µg/mL] | MIC [10, 22] [µg/mL] | MIC [12, 23] [µg/mL] | MIC (Escherichia coli 0111 [13]) [µg/mL] | MIC [18, 24] [µg/mL] | MIC [19, 25] [µg/mL] | MIC (Bacillus subtilis A; Bacillus subtilis) [µg/mL] | MIC (Citrobacter freundii E8; [26]) [µg/mL] | MIC (Enterobacter cloacae N1) [µg/mL] | MIC (Escherichia coli JT 39 [3]; [27]) [µg/mL] | MIC (Klebsiella aerogenes A [4]; Klebsiella aerogenes) [µg/mL] | MIC (Proteus mirabilis C977 [5]; [28]) [µg/mL] | MIC (Proteus morganii I580; I580, read-out: MIC Agar) [µg/mL] | MIC ([9]; Staphylococcus aureus) [µg/mL] | MIC ([10]; Staphylococcus aureus) [µg/mL] | MIC [11, 32] [µg/mL] | MIC [12, 33] [µg/mL] | also measured
1 | O=C(O)C1=CSC2CC(=O)N12 (stereo not drawn) |  |  |  |  |  |  |  |  |  |  |  |  |  |  |  |  |  |  |  |  | antibacterial activity [1]: somewhat disappointing degree of antibacterial activity
2 | CC(=O)NCCOCC1=C(C(=O)O)N2C(=O)CC2S1 (stereo not drawn) [compound 23, Sodium 2-(2-acetamidoethoxy)methylponom-3-carooxylate] | 2.5 | 10 | 25 | 2.5 | 25 | 1 | 31 | 4 | 16 |  |  |  |  |  |  |  |  |  |  |  | MIC (Citrobacter freundii E8; Citrobacter freundii E8, DST agar + 10% horse blood, inoculum 0.001 ml of an undilute overnight broth culture, read-out: MIC Agar): 25 µg/mL; MIC (Escherichia coli JT 39 [3]; JT39, Escherichia coli JT 39, DST agar + 10% horse blood, inoculum 0.001 ml of an undilute overnight broth culture, read-out: MIC Agar): > 100 µg/mL; MIC (Klebsiella aerogenes A [4]; Klebsiella aerogenes A, DST agar + 10% horse blood, inoculum 0.001 ml of an undilute overnight broth culture): 100 µg/mL; MIC (Proteus mirabilis C977 [5]; Proteus mirabilis C977, DST agar + 10% horse blood, inoculum 0.001 ml of an undilute overnight broth culture, read-out: MIC Agar): 25 µg/mL; MIC (Proteus morganii I580; Proteus morganii I580, DST agar + 10% horse blood, inoculum 0.001 ml of an undilute overnight broth culture, read-out: MIC Agar): > 100 µg/mL; MIC (Proteus rettgeri WM16; Proteus rettgeri WM16, DST agar + 10% horse blood, inoculum 0.001 ml of an undilute overnight broth culture, read-out: MIC Agar): > 100 µg/mL; MIC (Proteus vulgaris W091; Proteus vulgaris W091, DST agar + 10% horse blood, inoculum 0.001 ml of an undilute overnight broth culture, read-out: MIC Agar): > 100 µg/mL; MIC (Pseudomonas aeruginosa A [6]; Pseudomonas aeruginosa A, DST agar + 10% horse blood, inoculum 0.001 ml of an undilute overnight broth culture): > 100 µg/mL; MIC ([7]; Salmonella typhimurium CT10, DST agar + 10% horse blood, inoculum 0.001 ml of an undilute overnight broth culture): 25 µg/mL; MIC (Serratia marcescens US20; Serratia marcescens US20, DST agar + 10% horse blood, inoculum 0.001 ml of an undilute overnight broth culture, read-out: MIC Agar): 100 µg/mL; MIC ([8]; Staphylococcus aureus 1517, DST agar + 10% horse blood, inoculum 0.001 ml of an undilute overnight broth culture, read-out: MIC Agar): 50 µg/mL; MIC (Streptococcus faecalis I; Streptococcus faecalis I, DST agar + 10% horse blood, inoculum 0.001 ml of an undilute overnight broth culture): > 100 µg/mL; MIC ([11]; Streptococcus pneumoniae CN33, DST agar + 10% horse blood, inoculum 0.001 ml of an undilute overnight broth culture, read-out: MIC Agar): 0.5 µg/mL; MIC (Escherichia coli JT 39 [14]; JT39, Escherichia coli JT 39, Microtitre using Nutrient broth, inoculum 0.001 ml of an undilute overnight broth culture, read-out: MIC Broth): 250 µg/mL; MIC (Klebsiella aerogenes A [15]; Klebsiella aerogenes A, Microtitre using Nutrient broth, inoculum 0.001 ml of an undilute overnight broth culture): 62 µg/mL; MIC (Proteus mirabilis C977 [16]; Proteus mirabilis C977, Microtitre using Nutrient broth, inoculum 0.001 ml of an undilute overnight broth culture, read-out: MIC Broth): 31 µg/mL; MIC (Pseudomonas aeruginosa A [17]; Pseudomonas aeruginosa A, Microtitre using Nutrient broth, inoculum 0.001 ml of an undilute overnight broth culture): > 500 µg/mL
3 | COCOCC1=C(C(=O)[O-])N2C(=O)C[C@H]2S1.[Na+] [compound 25, Sodium 2-methoxymethoxymethylpenem-3-carboxylate] |  | 2.5 | 5 |  |  |  | 16 |  |  | 1.2 | 12.5 | > 50 | > 50 | 25 | 12.5 | > 50 | 2.5 | 5 | 0.2 | 0.5 | MIC (Proteus rettgeri WM16; WM16, read-out: MIC Agar): 25 µg/mL; MIC (Proteus vulgaris W091; [29]): > 50 µg/mL; MIC (Pseudomonas aeruginosa A [6]; Pseudomonas aeruginosa): > 50 µg/mL; MIC ([7]; TYPHIMURIUM): 5 µg/mL; MIC (Serratia marcescens US20; [30]): 25 µg/mL; MIC (Shigella sonnei MB 11967): 5 µg/mL; MIC [8, 31]: > 50 µg/mL; MIC (Streptococcus faecalis I): 50 µg/mL; MIC (Escherichia coli JT 39 [14]; [34]): 125 µg/mL; MIC (Klebsiella aerogenes A [15]; Klebsiella aerogenes): 16 µg/mL; MIC (Proteus mirabilis C977 [16]; [35]): 16 µg/mL; MIC (Pseudomonas aeruginosa A [17]; Pseudomonas aeruginosa): 500 µg/mL; MIC ([18]; Staphylococcus aureus): 2 µg/mL; MIC ([19]; Staphylococcus aureus): 8 µg/mL
4 | CC(=O)NCOCC1=C(C(=O)[O-])N2C(=O)C[C@H]2S1.[Na+] [compound 29, Sodium 2-acetamidomethoxymethylpenem-3-carboxylate] |  | 2.5 | 5 |  |  |  | 16 |  |  | 1.2 | 5 | > 50 | > 50 | 50 | 12.5 | > 50 | 2.5 | 12.5 | 0.2 | 0.5 | MIC (Proteus rettgeri WM16; WM16, read-out: MIC Agar): 50 µg/mL; MIC (Proteus vulgaris W091; [29]): > 50 µg/mL; MIC (Pseudomonas aeruginosa A [6]; Pseudomonas aeruginosa): > 50 µg/mL; MIC ([7]; TYPHIMURIUM): 5 µg/mL; MIC (Serratia marcescens US20; [30]): 25 µg/mL; MIC (Shigella sonnei MB 11967): 5 µg/mL; MIC [8, 31]: 50 µg/mL; MIC (Streptococcus faecalis I): 50 µg/mL; MIC (Escherichia coli JT 39 [14]; [34]): 125 µg/mL; MIC (Klebsiella aerogenes A [15]; Klebsiella aerogenes): 62 µg/mL; MIC (Proteus mirabilis C977 [16]; [35]): 31 µg/mL; MIC (Pseudomonas aeruginosa A [17]; Pseudomonas aeruginosa): > 500 µg/mL; MIC ([18]; Staphylococcus aureus): 8 µg/mL; MIC ([19]; Staphylococcus aureus): 16 µg/mL
5 | CCOC(C)OCC1=C(C(=O)[O-])N2C(=O)C[C@H]2S1.[Na+] (stereo partly drawn) [compound 34, Sodium 2-(1-ethoxyethoxy)methylpenem-3-carboxylate] |  |  |  |  |  |  |  |  |  |  |  |  |  |  |  |  | 2.5 | 10 | 1 | 1 | 
6 | CNC(=O)OCC1=C(C(=O)O)N2C(=O)CC2S1 (stereo not drawn) [compound 36, Sodium 2-N-methylcarbamoyloxymethylpenem-3-carboxylate] | 2.5 |  |  | 12.5 | 12.5 | 25 |  | 8 | 16 |  |  |  |  |  |  |  |  |  |  |  | 
